US11304930B2, “Ammonium salts of 3-(3,5-dibromo-4-hydroxybenzyliden)-5-indo-1,3-dihydroindol-2-one and uses thereof” (Metagone Biotech Inc., priority 2018, dated 2022)
Like-named read-outs stand apart in the source and are kept apart here.

Assays:
[1] = Water solubility of GW5074 salts
SUN-1 cells = test: MTS cell viability / proliferation assay; format: cell-based; settings: 72 hrs, in combination with sorafenib
Procedure: Gastric cancer cell line SUN-1 was purchased from the American Type Culture Collection (ATCC; Manassas, Va., USA) and were maintained in Roswell Park Memorial Institute-1640 (RPMI-1640) supplemented with 1.5 g/L sodium bicarbonate, 10% fetal bovine serum (FBS), 1.0% antibiotic-antimycotic, L-glutamine (2.0×10^−3 M), and 1.0% nonessential amino acids.
MTS cell proliferation assay kit (Abcam, Cambridge, UK) was used to evaluate cell viability. Briefly, SNU-1 cells were seeded in each well of a 96-well plate at the density of 8,000 cells/well and incubated overnight at 37° C. Cells were then treated with a test drug for 48 or 72 h at 37° C. Then, 20 μl MTS/well was added and incubated for 3 h at 37° C. Cell viability was measured by absorbance at 490 nm in a microplate reader.
To validate the bioactivity of the ammonium salts of GW5074 of Example 1, their effects on cell proliferation with or without the addition of another cell proliferation inhibitor-sorafenib, were investigated using MTS cell proliferation assay kit in accordance with the manufacturer's protocols. Results are illustrated FIGS. 1A and 1B.

[2] = Pilot pharmacokinetic study in mice; settings: single dose 40 mg/Kg, GW5074 measured in plasma; for AUC0-t: 0 to 24 hours
Procedure: (§1) B6 mice about 6-8 weeks of age (National laboratory animal center, Taipei, Taiwan) were used in the present study.
(§2) Pilot PK studies were carried out in mice.
(§3) Mice were fasting for 8 hrs before dosing. […] Blood samples were drawn from the tail vein at pre-designated time points. Each samples were extracted with 80% ethanol for 30 minutes and individually filtered through a 0.22 μm PVDF filter, then were subjected to HPLC-MS/MS.

[3] = mouse, in vivo, 40 mg/kg
Procedure: as §1, §2, §3

SMILES | Solubility [1] | growth inhibition (SUN-1 cells) | Cmax [2] | T1/2 [2] | Tmax [2] | AUC0-t [2] | AUC0-t [3] | Cmax [3] | T1/2 [3] | Tmax [3]
C1COCCN1.O=C1Nc2ccc(I)cc2C1=Cc1cc(Br)c(O)c(Br)c1 [Morpholine Salt of GW5075] | 0.57 mg/100 mL |  |  |  |  |  |  |  |  | 
CC(C)(N)CN.O=C1Nc2ccc(I)cc2C1=Cc1cc(Br)c(O)c(Br)c1 [MG-A2, 2-Amino-2-Methylpropylamine Salt of GW5075] | 0.19 mg/100 mL | about 70% | 6447.7 ng/mL | 4.855 h | 0.5 h | 7936.2 ng·h/mL |  |  |  | 
O=C1Nc2ccc(I)cc2C1=Cc1cc(Br)c(O)c(Br)c1.OCCN(CCO)CCO [MG-A3, Triethanolamine Salt of GW5075] |  | about 70% | 6844.6 ng/mL | 4.364 h | 0.5 h | 8258.7 ng·h/mL |  |  |  | 
O=C1Nc2ccc(I)cc2C1=Cc1cc(Br)c(O)c(Br)c1 [GW5074, 3-(3,5-dibromo-4-hydroxybenzyliden)-5-iodo-1,3-duhydroindol-2-one] |  | about 70% |  |  |  |  | 6127.9 ng·h/mL | 4905.2 ng/mL | 3.719 h | 0.5 h
O=C1Nc2ccc(I)cc2C1=Cc1cc(Br)c([O-])c(Br)c1.[Na+] [MG-A1, Sodium Salts of GW5074] |  | about 70% |  |  |  |  |  |  |  | 
